Three compounds from ChEMBL document CHEMBL5247602, “Developing a Naïve Bayesian Classification Model with PI3Kγ structural features for virtual screening against PI3Kγ: Combining molecular docking and pharmacophore based on multiple PI3Kγ conformations” (Eur J Med Chem, 2022) can be followed below.

SMILES strings stand for the structures.

Assay [1] deals with T1, Phosphatidylinositol 4,5-bisphosphate 3-kinase catalytic subunit gamma isoform (Homo sapiens, UniProt P48736). In words: Inhibition of PI3Kgamma (unknown origin) at 10 uM preincubated for 10 mins followed by ATP addition and measured after 60 mins by ADP-Glo assay relative to control. Conditions: time 70.0 min.
Target sequence in this assay (P48736 whole entry, looked up, canonical isoform): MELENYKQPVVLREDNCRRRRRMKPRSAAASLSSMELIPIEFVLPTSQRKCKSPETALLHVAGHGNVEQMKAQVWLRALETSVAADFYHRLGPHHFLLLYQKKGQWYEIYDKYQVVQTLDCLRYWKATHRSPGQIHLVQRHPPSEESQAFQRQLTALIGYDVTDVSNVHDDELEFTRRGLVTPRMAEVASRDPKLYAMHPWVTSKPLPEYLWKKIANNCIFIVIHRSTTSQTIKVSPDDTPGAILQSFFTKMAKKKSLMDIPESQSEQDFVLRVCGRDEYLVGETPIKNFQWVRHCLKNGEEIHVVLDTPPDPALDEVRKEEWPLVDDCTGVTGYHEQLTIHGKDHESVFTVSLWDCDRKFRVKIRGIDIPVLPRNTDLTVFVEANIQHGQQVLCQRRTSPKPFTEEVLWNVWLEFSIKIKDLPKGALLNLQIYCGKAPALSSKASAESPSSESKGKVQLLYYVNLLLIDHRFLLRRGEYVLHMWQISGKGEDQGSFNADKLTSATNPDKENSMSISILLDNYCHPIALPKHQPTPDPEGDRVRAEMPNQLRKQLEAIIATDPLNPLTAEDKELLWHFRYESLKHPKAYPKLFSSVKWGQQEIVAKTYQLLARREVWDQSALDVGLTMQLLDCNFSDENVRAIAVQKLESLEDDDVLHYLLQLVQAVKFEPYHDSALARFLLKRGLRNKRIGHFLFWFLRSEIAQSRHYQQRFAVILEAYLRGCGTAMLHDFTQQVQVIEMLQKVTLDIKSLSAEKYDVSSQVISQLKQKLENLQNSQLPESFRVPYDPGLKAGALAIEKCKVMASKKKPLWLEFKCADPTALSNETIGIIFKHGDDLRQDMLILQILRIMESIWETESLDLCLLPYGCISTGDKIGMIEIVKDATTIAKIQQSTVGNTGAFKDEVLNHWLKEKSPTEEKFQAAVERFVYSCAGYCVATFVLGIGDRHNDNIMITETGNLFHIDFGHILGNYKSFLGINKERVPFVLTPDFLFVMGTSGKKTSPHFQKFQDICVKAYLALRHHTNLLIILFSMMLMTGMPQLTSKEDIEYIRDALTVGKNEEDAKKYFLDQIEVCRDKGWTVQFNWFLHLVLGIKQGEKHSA
Assay [2] addresses T1, Phosphatidylinositol 4,5-bisphosphate 3-kinase catalytic subunit gamma isoform. In words: Inhibition of PI3Kgamma (unknown origin) preincubated for 10 mins followed by ATP addition and measured after 60 mins by ADP-Glo assay.
Target sequence in this assay (P48736 whole entry, canonical isoform): as the sequence (P48736 whole entry, looked up, canonical isoform) above
Assay [3] concerns the target Phosphatidylinositol 4,5-bisphosphate 3-kinase catalytic subunit alpha isoform (Homo sapiens, UniProt P42336). The assay can be described thus: Inhibition of PI3Kalpha (unknown origin) preincubated for 10 mins followed by ATP addition and measured after 60 mins by ADP-Glo assay. (In ADP-Glo the light output rises with the ADP produced.)
In assay [4] the target is Phosphatidylinositol 4,5-bisphosphate 3-kinase catalytic subunit beta isoform (Homo sapiens, UniProt P42338). In words: Inhibition of PI3Kbeta (unknown origin) preincubated for 10 mins followed by ATP addition and measured after 60 mins by ADP-Glo assay.
Assay [5] deals with T2, Phosphatidylinositol 4,5-bisphosphate 3-kinase catalytic subunit delta isoform (Homo sapiens, UniProt O00329).
T2 sequence (O00329 whole entry): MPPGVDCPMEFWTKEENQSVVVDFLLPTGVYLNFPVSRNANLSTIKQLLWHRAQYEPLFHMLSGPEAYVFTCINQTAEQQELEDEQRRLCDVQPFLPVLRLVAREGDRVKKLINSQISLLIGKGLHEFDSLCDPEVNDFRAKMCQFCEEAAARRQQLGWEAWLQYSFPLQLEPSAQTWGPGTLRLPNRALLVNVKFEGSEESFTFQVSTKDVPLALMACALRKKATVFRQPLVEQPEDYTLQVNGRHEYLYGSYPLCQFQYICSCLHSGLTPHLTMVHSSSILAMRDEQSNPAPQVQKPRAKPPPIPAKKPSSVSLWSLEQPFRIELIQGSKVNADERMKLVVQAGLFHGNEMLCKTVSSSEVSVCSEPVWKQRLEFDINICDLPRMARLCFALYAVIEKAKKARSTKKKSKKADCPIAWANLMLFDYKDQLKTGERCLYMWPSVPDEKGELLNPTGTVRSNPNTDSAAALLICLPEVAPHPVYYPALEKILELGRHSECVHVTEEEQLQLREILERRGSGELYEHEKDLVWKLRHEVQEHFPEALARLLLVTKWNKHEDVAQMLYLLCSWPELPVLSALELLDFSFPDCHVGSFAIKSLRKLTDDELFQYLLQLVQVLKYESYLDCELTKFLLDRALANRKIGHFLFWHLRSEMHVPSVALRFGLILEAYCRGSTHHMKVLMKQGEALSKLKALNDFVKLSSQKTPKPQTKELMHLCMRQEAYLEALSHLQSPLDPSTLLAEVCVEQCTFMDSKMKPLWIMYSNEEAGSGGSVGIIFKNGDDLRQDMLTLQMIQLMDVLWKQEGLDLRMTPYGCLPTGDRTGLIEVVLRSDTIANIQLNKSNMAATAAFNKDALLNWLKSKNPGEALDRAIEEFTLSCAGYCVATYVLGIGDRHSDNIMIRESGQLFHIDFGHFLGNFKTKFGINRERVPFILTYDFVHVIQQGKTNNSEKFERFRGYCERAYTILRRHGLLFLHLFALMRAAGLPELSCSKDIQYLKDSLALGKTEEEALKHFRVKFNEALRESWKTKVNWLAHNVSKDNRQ
In words: Inhibition of PI3Kdelta (unknown origin) preincubated for 10 mins followed by ATP addition and measured after 60 mins by ADP-Glo assay.

The subject of assay [6] is RAW264.7. The assay can be described thus: Inhibition of PI3K/AKT signalling pathway in mouse RAW264.7 cells assessed as reduction in LPS-stimulated phosphorylation of AKT at Ser473 residue preincubated for 6 hrs followed by LPS stimulation for 6 hrs by Western blot analysis. In kind it is cell-based. The note with it: dose 5-20 µM, time 12.0 hrs. (Immunoblotting shows a protein as a band on a membrane.)

Assay [7] concerns RAW264.7. In words: Inhibition of PI3K/AKT signalling pathway in mouse RAW264.7 cells assessed as reduction in LPS-stimulated phosphorylation of AKT at Ser473 residue at 5 to 20 uM preincubated with compound followed by LPS stimulation for 6 hrs by Western blot analysis. Type of assay: cell-based. The note with it: dose 5-20 µM, TDE = time-dependent effect.
The target of assay [8] is Phosphatidylinositol 4,5-bisphosphate 3-kinase catalytic subunit gamma isoform (Mus musculus) (UniProt Q9JHG7). In words: Inhibition of PI3Kgamma in mouse RAW264 cells assessed as reduction in LPS-stimulated TNFalpha mRNA expression preincubated for 6 hrs followed by LPS addition and measured after 24 hrs by RT-PCR analysis. In kind it is cell-based. The note with it: RAW264.7, dose 1.2-10 µM, time 30.0 hrs.

For assay [9] the target is unchanged. The assay can be described thus: Inhibition of PI3Kgamma in mouse RAW264 cells assessed as reduction in LPS-stimulated IL-6 mRNA expression preincubated for 6 hrs followed by LPS addition and measured after 24 hrs by RT-PCR analysis. Type of assay: cell-based. The note with it: RAW264.7, dose 1.2-10 µM, time 30.0 hrs.

Phosphatidylinositol 4,5-bisphosphate 3-kinase catalytic subunit gamma isoform (Mus musculus), sequence (Q9JHG7 whole entry, looked up, canonical isoform): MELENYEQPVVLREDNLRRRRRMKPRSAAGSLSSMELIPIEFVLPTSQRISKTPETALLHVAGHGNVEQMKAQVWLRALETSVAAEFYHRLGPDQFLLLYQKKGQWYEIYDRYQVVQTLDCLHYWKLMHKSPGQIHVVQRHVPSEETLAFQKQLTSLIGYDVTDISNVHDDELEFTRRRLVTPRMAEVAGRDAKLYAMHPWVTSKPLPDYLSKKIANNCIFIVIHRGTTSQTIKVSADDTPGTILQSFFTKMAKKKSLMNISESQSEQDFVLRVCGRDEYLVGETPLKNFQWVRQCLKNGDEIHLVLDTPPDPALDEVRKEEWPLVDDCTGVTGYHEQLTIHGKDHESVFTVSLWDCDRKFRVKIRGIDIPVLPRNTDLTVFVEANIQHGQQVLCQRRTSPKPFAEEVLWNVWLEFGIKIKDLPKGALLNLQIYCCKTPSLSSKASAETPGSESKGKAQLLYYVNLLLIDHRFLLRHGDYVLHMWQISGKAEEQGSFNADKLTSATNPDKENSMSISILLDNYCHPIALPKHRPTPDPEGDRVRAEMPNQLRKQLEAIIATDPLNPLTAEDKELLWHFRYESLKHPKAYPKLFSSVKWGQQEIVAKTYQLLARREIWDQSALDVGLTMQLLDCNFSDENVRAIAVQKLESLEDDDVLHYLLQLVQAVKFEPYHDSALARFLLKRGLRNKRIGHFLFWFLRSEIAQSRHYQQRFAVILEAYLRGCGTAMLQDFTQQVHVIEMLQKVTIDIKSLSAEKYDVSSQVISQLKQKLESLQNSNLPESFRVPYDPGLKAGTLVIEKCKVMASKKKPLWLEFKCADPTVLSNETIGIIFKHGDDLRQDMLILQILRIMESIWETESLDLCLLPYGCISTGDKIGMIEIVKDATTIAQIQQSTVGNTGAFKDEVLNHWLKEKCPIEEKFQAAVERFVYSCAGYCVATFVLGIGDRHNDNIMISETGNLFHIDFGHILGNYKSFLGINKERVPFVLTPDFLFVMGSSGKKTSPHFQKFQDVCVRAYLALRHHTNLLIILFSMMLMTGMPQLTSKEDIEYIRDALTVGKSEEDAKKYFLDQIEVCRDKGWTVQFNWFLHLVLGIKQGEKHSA
Phosphatidylinositol 4,5-bisphosphate 3-kinase catalytic subunit beta isoform, sequence (P42338 whole entry, canonical isoform): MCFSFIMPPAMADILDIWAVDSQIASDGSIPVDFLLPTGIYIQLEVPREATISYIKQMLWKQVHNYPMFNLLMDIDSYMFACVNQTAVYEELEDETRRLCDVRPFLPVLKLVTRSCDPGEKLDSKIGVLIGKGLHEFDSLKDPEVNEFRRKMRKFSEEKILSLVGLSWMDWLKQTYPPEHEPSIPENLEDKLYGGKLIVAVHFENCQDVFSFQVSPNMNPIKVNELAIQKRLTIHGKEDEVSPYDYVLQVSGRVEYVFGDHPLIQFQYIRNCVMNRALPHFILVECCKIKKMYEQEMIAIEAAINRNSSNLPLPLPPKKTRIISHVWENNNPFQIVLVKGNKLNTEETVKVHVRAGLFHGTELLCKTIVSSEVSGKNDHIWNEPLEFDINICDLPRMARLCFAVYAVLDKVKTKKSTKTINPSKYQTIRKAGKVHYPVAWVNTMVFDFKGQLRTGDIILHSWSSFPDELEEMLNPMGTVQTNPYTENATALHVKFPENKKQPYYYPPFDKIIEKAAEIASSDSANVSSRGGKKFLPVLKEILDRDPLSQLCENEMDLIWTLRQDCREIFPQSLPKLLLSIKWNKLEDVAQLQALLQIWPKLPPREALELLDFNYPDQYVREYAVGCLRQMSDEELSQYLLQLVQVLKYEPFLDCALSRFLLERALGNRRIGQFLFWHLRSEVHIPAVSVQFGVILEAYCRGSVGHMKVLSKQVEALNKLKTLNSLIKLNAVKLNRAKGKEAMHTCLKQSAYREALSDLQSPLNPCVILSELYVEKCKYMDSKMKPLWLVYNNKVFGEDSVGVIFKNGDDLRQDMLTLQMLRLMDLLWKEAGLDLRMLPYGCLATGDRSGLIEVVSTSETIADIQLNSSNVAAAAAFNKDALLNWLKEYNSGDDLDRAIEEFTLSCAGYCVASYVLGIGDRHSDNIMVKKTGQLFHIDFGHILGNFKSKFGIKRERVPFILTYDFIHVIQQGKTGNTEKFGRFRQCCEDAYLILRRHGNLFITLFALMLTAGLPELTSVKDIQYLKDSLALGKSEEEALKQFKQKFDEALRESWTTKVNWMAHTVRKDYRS
Phosphatidylinositol 4,5-bisphosphate 3-kinase catalytic subunit alpha isoform, sequence (P42336 whole entry, canonical isoform): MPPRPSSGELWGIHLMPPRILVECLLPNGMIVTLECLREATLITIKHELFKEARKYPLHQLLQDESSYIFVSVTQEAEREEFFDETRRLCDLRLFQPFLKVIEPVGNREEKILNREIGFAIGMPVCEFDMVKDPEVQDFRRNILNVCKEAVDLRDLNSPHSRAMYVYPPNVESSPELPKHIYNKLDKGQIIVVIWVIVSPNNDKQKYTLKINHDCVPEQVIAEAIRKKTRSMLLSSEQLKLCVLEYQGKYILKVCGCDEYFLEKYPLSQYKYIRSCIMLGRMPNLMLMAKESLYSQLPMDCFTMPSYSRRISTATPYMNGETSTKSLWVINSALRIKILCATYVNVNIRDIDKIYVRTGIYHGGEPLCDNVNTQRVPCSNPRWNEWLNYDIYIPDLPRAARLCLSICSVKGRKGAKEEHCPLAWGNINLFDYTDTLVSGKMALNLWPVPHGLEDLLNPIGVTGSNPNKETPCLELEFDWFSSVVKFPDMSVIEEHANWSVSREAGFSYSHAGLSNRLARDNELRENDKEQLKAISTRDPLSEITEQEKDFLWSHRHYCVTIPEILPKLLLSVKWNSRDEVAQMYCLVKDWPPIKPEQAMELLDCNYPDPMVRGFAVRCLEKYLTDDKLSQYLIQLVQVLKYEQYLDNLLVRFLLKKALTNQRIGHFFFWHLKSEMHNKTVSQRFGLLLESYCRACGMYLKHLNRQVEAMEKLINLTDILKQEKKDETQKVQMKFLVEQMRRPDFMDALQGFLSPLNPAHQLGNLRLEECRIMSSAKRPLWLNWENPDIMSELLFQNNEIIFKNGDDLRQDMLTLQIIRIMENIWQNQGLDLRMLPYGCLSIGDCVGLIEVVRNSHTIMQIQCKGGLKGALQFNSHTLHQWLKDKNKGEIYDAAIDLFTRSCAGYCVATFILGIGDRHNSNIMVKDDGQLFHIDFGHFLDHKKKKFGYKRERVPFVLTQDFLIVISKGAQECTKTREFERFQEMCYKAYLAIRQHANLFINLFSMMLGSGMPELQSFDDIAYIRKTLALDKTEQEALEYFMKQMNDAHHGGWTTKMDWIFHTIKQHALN

By inhibition is commonly meant how much of the control response was suppressed. The IC50 is the concentration that inhibits the measured activity by half. On to `Cn1c(=O)n(C)c2ccc3ccc4ccc1c2c43`, for which the inhibition was 80% in [1]; “Dose-Dependent Effect” in the assay with RAW264.7 [6]; “Tde” with RAW264.7 [7]; “Dose-Dependent Effect” in assay [8]; “Dose-Dependent Effect” in assay [9]. The IC50 in assay [2] was 2.45 µM; in assay [3], 5.64 µM; in assay [4] it was 5.02 µM; in assay [5], 11.7 µM.

In turn, `Cn1c(=O)c2cc(S(=O)(=O)NC3CC3)ccc2n(C)c1=O` displayed an inhibition in [1] of 40%. This compound gave an IC50 in [2] of 15.9 µM.

`Cn1c(=O)c2cc(S(N)(=O)=O)ccc2n(C)c1=O` returned an inhibition in assay [1] of 55%. This compound also registered an IC50 in [2] of 17.5 µM.
